Values of other authors, collected in US20140080710A1, “COMPOSITIONS WITH HOT MELT RESIN MATRIX” (AgroFresh Inc., priority 2012, published 2014).

System: ethylene receptor
Details: compared with ethylene

In the case of `CC1=CC1` [Sample 1-MCP, 1-methylcyclopropene], the “affinity for the receptor relative to that of ethylene” value is listed as “approximately 10 times”.
